pIC50: −log10 of the molar value. Values after ≈ are worked out from the molar mass of the structure shown.
How the values were obtained:
[1] = Reducing power (RP) assay; set-up: concentration or dose not given beside the values; details: for RP, % of Activity of Trolox: relative to Trolox; for RP, % of Activity of Ascorbic Acid: relative to ascorbic acid
Experimental: Herein, the iron (III) is not free in the solution as it was in the FRAP assay and is complexed by cyanide ions. The evaluation of the reducing power (RP) was performed at a pH closer to neutral (pH = 6.6); this is different from the FRAP test, which is performed in an acidic environment. Against a blank sample, the absorbances were measured at λ = 700 nm. The followed protocol was based on the adaptation of previously reported protocols and was previously reported by our group. Using Equation (4), we calculated the reducing power of the 5a–d and 6a–d compounds as a percentage of the reference compounds activity.
The evaluated compounds can reduce ferricyanide to ferrocyanide, in the presence of ferric ions, resulting in the Perl’s Prussian which gives blue. The higher the percentage of reducing power, the higher was the absorbance that was measured due to a higher amount of colored complex resulting from the reaction.

[2] = system: normal human foreskin fibroblasts (BJ); assay: Cytotoxicity, Alamar blue assay, BJ cells; format: cell-based; details: for IC50: Homo sapiens, Fibroblast, 24 h exposure, Alamar blue
Source text: (§1) Normal human foreskin (BJ) fibroblasts and two types of cancer cells, namely A549 (lung adenocarcinoma) and LNCaP (prostate carcinoma) purchased from American Type Culture Collection (Manassas, VA, USA), were used in the experiments. Each cell line was maintained in a different culture medium, depending on the metabolic necessities of the cells. BJ cells were maintained in Dulbecco’s modified Eagle’s medium (DMEM) with low glucose. A549 cells were maintained in DMEM with high glucose […], while LNCaP cells were grown in Roswell Park Memorial Institute (RPMI) 1640 medium with high glucose (5 g/L). All media used were supplemented with 10% fetal bovine serum (FBS) and were refreshed every two days. Cells were used in experiments or subcultured when they reached 70–80% confluence.
(§2) In 100 µL in 96-well plates, a number of 30,000 LNCaP cells, 15,000 A549 cells, and 7500 normal (BJ) cells were seeded. Because the cells have different sizes and volumes, the purpose of the different seedings was to achieve a confluency of 70–80% after 24 h. All types of cells were further exposed to the synthesized compounds (5a–d and 6a–d) for 24 h, at a concentration ranging from 12.5 to 100 µg/mL. Post-exposure, the media were removed, and the cells were washed with phosphate buffer saline (PBS). Their viability was evaluated using Alamar blue (AB) assay as previously described. Briefly, the cells were incubated with a 200 µM resazurin solution for 4 h. Using a Synergy 2 multi-mode microplate reader, we measured the fluorescence. The measurement was performed at λexcitation = 530/25 nm; λemission = 590/35 nm. We conducted the experiments using three biological replicates, each one including 6 technical replicates. As negative controls (NC), cells exposed to culture medium containing 0.2% DMSO were used. Compared to the NC (100%), the results were expressed as relative values. We used IC50 values for the potency evaluation, and calculated them for each cell line, using the dose-effect curves obtained by fitting the experimental data with a 4-parameter logistic curve.
(§3) Mean values ± standard deviation (SD) values of at least three biological replicates were used to calculate experimental data. One-way analysis of variance (ANOVA) with a post hoc Holm–Sidak test was used to statistically examine the data. Using SigmaPlot 11.0 software (Systat, Software Inc., Chicago, IL, USA), we performed the graphical display and data analysis. From a statistical point of view, the results were considered different, at values of p < 0.05.

[3] = NO˙ radical scavenging assay (Griess reaction); details: PBS pH 7.4, sodium nitroprusside
Experimental: The scavenging of the NO˙ radical was performed by applying previously reported protocols. The in vitro protocol describes the decomposition of sodium nitroprusside in phosphate buffered saline (PBS) at pH = 7.4. The NO˙ radicals would be involved in a Griess reaction if they were not captured by the tested compounds. This reaction results from the formation of an azo dye, with maximum absorption at 546 nm. This azo dye is formed from sulfanilic acid and naphthyl ethylenediamine dichloride.

[4] = Ferric reducing antioxidant potential (FRAP) assay; set-up: concentration or dose not given beside the values; details: for FRAP, % of Activity of Trolox: relative to Trolox; for FRAP, % of Activity of Ascorbic Acid: relative to ascorbic acid
Experimental: In the ferric reducing antioxidant potential (FRAP) assay, in comparison with a blank sample prepared from DMSO mixed with FRAP reagent, the absorbance of the solutions was measured at λ = 593 nm. The compounds were tested according to a modified method proposed initially by Benzie and Strain [31]. Using Equation (4), we calculated the reducing antioxidant potential of 5a–d and 6a–d as a percentage of the activity of the reference compounds:(4) % of control activity=sample absorbance/reference absorbance×100
Ferrous ions resulting from the reduction of ferric ions in the presence of an antioxidant compound form a blue-colored complex (Fe^2+-TPTZ) at pH = 3.6 with tripyridyltriazine (2,4,6-tris(2-pyridyl)-s-triazine). The intensity of the blue complex formed is proportional to the number of ferrous ions. Compounds 5a, 5c and 5d expressed a good electron donation capacity.

[5] = Phosphomolybdate assay for total antioxidant capacity (TAC); set-up: concentration or dose not given beside the values; details: for TAC, % of Activity of Trolox: relative to Trolox; for TAC, % of Activity of Ascorbic Acid: relative to ascorbic acid
Source text: Using the phosphomolybdate assay, we determined the total antioxidant capacity (TAC) of the tested compounds. We measured the solutions’ absorbances against a blank sample at λ = 695 nm, using a previously reported procedure by our group, based on initial literature reports. Using Equation (4), we calculated the TAC of 5a–d and 6a–d compounds.
At acidic pH, the tested compounds transfer one electron to Mo^6+ to reduce it to Mo^5+.

[6] = system: A549 (lung adenocarcinoma) cells; assay: Cytotoxicity, Alamar blue assay, A549 cells; format: cell-based; details: Homo sapiens, 24 h exposure
Source text: as §1, §2, §3

[7] = ABTS˙+ radical scavenging assay
Experimental: The stock solutions (1 mg/mL) of the tested compounds and the controls were obtained, by dissolving the substances in dimethyl sulfoxide (DMSO). Using Jasco V-530, an UV-VIS spectrophotometer (Jasco International Co., Ltd., Tokyo, Japan), we performed the colorimetric determinations in low-volume single-use 10 mm width cuvettes.
The assays were performed in triplicate and the results are presented as averages for each assay.

Row | SMILES | melting point [°C] | RP, % of Activity of Trolox [1] [%] | RP, % of Activity of Ascorbic Acid [1] [%] | IC50 [2] [µg/mL] | % of NO˙ Scavenged [3] [%] | FRAP, % of Activity of Trolox [4] [%] | FRAP, % of Activity of Ascorbic Acid [4] [%] | TAC, % of Activity of Trolox [5] [%] | TAC, % of Activity of Ascorbic Acid [5] [%] | IC50 [6] [µg/mL] | pIC50 [7] | IC50 (ABTS˙^+ scavenging) [7] [µg/mL] | % of ABTS˙^+ Scavenging ([7]; 0.83 µg/mL) [%] | % of ABTS˙^+ Scavenging ([7]; 1.67 µg/mL) [%] | % of ABTS˙^+ Scavenging ([7]; 3.33 µg/mL) [%] | % of ABTS˙^+ Scavenging ([7]; 4.99 µg/mL) | % of ABTS˙^+ Scavenging ([7]; 6.66 µg/mL) | % of ABTS˙^+ Scavenging ([7]; 9.99 µg/mL) | % of ABTS˙^+ Scavenging ([7]; 13.32 µg/mL) | decrease of cellular viability in BJ cells ([2]; highest concentration tested, 24 h)
1 | O=C(CSc1nc2ccccc2c(=O)n1Cc1ccccc1)NN=Cc1ccc(O)c(O)c1O [Compound 5b, 2-((3-Benzyl-4-oxo-3,4-dihydroquinazolin-2-yl)thio)-N’-(2,3,4-trihydroxybenzylidene)acetohydrazide] | 228 | 85.68 | 58.80 | > 100 | 36.75 | 76.93 | 67.05 | 156.96 | 81.34 | 69.5 | 5.40 | 1.91 (≈ 4.01 µM) | 34.65 | 49.32 | 68.62 | 85.98% | + (+ represents more than 95%) | + (+ represents more than 95%) | + (+ represents more than 95%) | 
2 | CCn1c(SCC(=O)NN=Cc2ccc(O)c(O)c2O)nc2ccccc2c1=O [Compound 5c, 2-((3-Ethyl-4-oxo-3,4-dihydroquinazolin-2-yl)thio)-N’-(2,3,4-trihydroxybenzylidene)acetohydrazide] | 208 | 72.75 | 49.93 | > 100 | 43.21 | 95.70 | 83.40 | 163.49 | 84.73 | 49.1 | 5.41 | 1.60 (≈ 3.86 µM) | 39.05 | 52.25 | 72.57 | + (+ represents more than 95%) | + (+ represents more than 95%) | + (+ represents more than 95%) | + (+ represents more than 95%) | approximately 40%
3 | CCCCn1c(SCC(=O)NN=Cc2ccc(O)c(O)c2O)nc2ccccc2c1=O [Compound 5d, 2-((3-Butyl-4-oxo-3,4-dihydroquinazolin-2-yl)thio)-N’-(2,3,4-trihydroxybenzylidene)acetohydrazide] | 239 | 72.18 | 49.54 | > 100 | 35.14 | 92.71 | 80.80 | 117.87 | 61.09 | 42.1 | 5.46 | 1.55 (≈ 3.5 µM) | 41.98 | 52.25 | 67.46 | 81.06% | + (+ represents more than 95%) | + (+ represents more than 95%) | + (+ represents more than 95%) | 
4 | C=CCn1c(SCC(=O)NN=C(C)c2ccc(O)cc2O)nc2ccccc2c1=O [Compound 6a, 2-((3-Allyl-4-oxo-3,4-dihydroquinazolin-2-yl)thio)-N’-(1-(2,4-dihydroxyphenyl)ethylidene)acetohydrazide] | 230 | 30.73 | 21.09 | > 100 | 31.82 | 26.17 | 22.81 | 94.38 | 48.91 | 35.7 | 4.77 | 7.17 (≈ 16.9 µM) | 27.03 | 30.08 | 37.19 | 42.27% | 50.03% | 60.55% | 70.24% | 

From article PMC9867241, “Antioxidant and Cytotoxic Activity of New Polyphenolic Derivatives of Quinazolin-4(3H)-one: Synthesis and In Vitro Activities Evaluation” (Pharmaceutics, 2022)
